From patent US20050112551A1, “Dual assay for evaluating activity and cytotoxicity of compounds in the same population of cells” (AGOURON PHARMACEUTICALS, INC., priority 2003, published 2005)
Read-outs that look alike come from different tables or passages of the source.

Tests used:
[1] = tested on: HIV-1 RF infection of CEM-SS cells; test: HIV-1 RF cell protection assay (XTT dye reduction), antiviral activity; assay type: cell-based; details: for HIV-1 RF Cell Protection Assay TI (therapeutic index, CC50/EC50): CC50 divided by EC50, cell protection assay; for EC50: read-out: HIV-1 RF Cell Protection Assay EC50
[2] = HIV-1 RF cell protection assay (XTT dye reduction), cytotoxicity in uninfected cells; assay type: cell-based; details: human
Method: (§1) The antiviral activities of compounds were also evaluated in cell protection assays by the XTT dye reduction method. CEM-SS subject cells were infected with HIV-1 RF virus at an moi of 0.025 to 0.819 or mock infected with medium only and added at 2×10^4 cells per well into 96-well plates containing half-log dilutions of test compounds. Six days later, 50 μl of XTT (1 mg/ml XTT tetrazolium, […] phenazine methosulfate) was added to the wells and the plate was reincubated for four hours. Viability, as determined by the amount of XTT formazan produced, was quantified spectrophotometrically by absorbance at 450 nm.
(§2) Data from cell protection assays were expressed as the percent of formazan produced in compound-treated cells compared to formazan produced in wells of uninfected, compound-free cells.

[3] = tested on: VSV/HIVLuc infection of HeLa HRLuc cells
in vitro = details: human
[4] = tested on: VSV/HIVLuc infection of HeLa HRLuc cells; test: microbe, parasite or virus in culture; details: Vesicular stomatitis virus, 72 h, read-out: Dual Reporter Assay EC50
CEM-SS cells = test: HIV-1 RF cell protection assay (XTT dye reduction), cytotoxicity in uninfected cells; assay type: cell-based; details: XTT dye reduction, uninfected CEM-SS cells, six days; mean of 2 to 3 experiments
Method: as §1, §2

HeLa HRLuc cells = details: read-out: Dual Reporter Assay CC50; Renilla luciferase reporter in infected HeLa HRLuc cells, ~72 hours; mean of 2 to 3 experiments
[5] = Human immunodeficiency virus 1, 144 h, XTT dye reduction six days after infection of CEM-SS cells with HIV-1 RF, mean of 2 to 3 experiments
[6] = XTT dye reduction, uninfected CEM-SS cells, six days, mean of 2 to 3 experiments, read-out: HIV-1 RF Cell Protection Assay CC50
[7] = uninfected (mock-infected) CEM-SS cells, XTT dye reduction, uninfected CEM-SS cells, six days, mean of 2 to 3 experiments, read-out: HIV-1 RF Cell Protection Assay CC50

SMILES	HIV-1 RF Cell Protection Assay TI (therapeutic index, CC50/EC50) [1]	EC50 [1, 5]	CC50 at 6 days [2, 6]	Dual Reporter Assay TI (therapeutic index, CC50/EC50) [3]	CC50 (in vitro)	EC50 [4]	CC50 at 6 days [2]	EC50 ([1]; XTT dye reduction six days after infection of CEM-SS cells with HIV-1 RF, mean of 2 to 3 experiments)	CC50 (CEM-SS cells)	EC50 ([3]; read-out: Dual Reporter Assay EC50)	CC50 (HeLa HRLuc cells)	CC50 at 6 days [2, 7]	EC50 ([1]; Human immunodeficiency virus 1, CEM-SS, 144 h)
CC(C)c1nc(COC(N)=O)n(Cc2ccncc2)c1Sc1cc(Cl)cc(Cl)c1 [CPV, Capravirine]	47,214	0.0014 µM	66.1 µM	24,266	36.4 µM	0.0015 µM	–	–	–	–	–	–	–
Nc1ccn([C@@H]2CS[C@H](CO)O2)c(=O)n1 [Compound 3TC, lamivudine]	>15,384	0.065 µM	–	>229	> 32 µM	0.14 µM	> 1000 µM	–	–	–	–	–	–
O=C(O)C(=O)CC(=O)c1cccn1Cc1ccc(F)cc1 [Compound L-731988]	55.6	–	–	92.2	–	–	–	4.5 µM	250 µM	1.8 µM	166 µM	–	–
Cc1ccnc2c1NC(=O)c1cccnc1N2C1CC1 [NVP, Nevirapine]	>30,303	0.033 µM	> 1000 µM	>1032	> 32 µM	0.031 µM	–	–	–	–	–	–	–
Cc1cn([C@H]2C[C@H](N=[N+]=[N-])[C@@H](CO)O2)c(=O)[nH]c1=O [AZT, 3′-Azido-3′-deoxythymidine]	>40,000	0.008 µM	–	>11,034	> 320 µM	0.029 µM	–	–	–	–	–	> 320 µM	–
O=C1Nc2ccc(Cl)cc2[C@@](C#CC2CC2)(C(F)(F)F)O1 [EFV, efavirenz]	38,266	0.0015 µM	57.4 µM	179,250	71.7 µM	0.0004 µM	–	–	–	–	–	–	–
O=c1[nH]cnc2c1ncn2[C@H]1CC[C@@H](CO)O1 [ddl, didanosine]	–	–	–	–	> 32 µM	0.59 µM	–	–	–	–	–	> 32 µM	12.9 µM
Cc1cn([C@H]2C=C[C@@H](CO)O2)c(=O)[nH]c1=O [d4T, stavudine]	>64	0.51 µM	> 32 µM	>119	> 32 µM	0.27 µM	–	–	–	–	–	–	–
CC(C)Nc1cccnc1N1CCN(C(=O)c2cc3cc(NS(C)(=O)=O)ccc3[nH]2)CC1 [DLV, delavirdine]	6,961	0.013 µM	90.5 µM	>5000	> 100 µM	0.02 µM	–	–	–	–	–	–	–
